Measured values reported in patent US7659289B2, “Hydroxyethylene-based β-secretase inhibitors and use thereof” (CoMentis, Inc., priority 2004, dated 2010).

Columns and labels:
memapsin 2 = memapsin 2 (Homo sapiens, UniProt P56817); assay: Inhibition of memapsin 2 beta-secretase activity toward fluorogenic substrate FS-2; format: biochemical; conditions: pH 4, 37° C., 20 minutes pre-incubation, fluorogenic substrate FS-2, tight-binding model; read-out: M2 Ki
Aβ production = assay: Cellular Aβ IC50 determination (Aβ40 sandwich ELISA); format: cell-based; conditions: Cricetulus griseus; Aβ40, Chinese hamster ovary cells over-expressing human APP695 with London and Swedish mutations, 24 h incubation
Experimental: The potency of compounds against memapsin 2 activity was determined in a cellular assay of Aβ production. […] Chinese hamster ovary cells that over-express human APP695 with the London and Swedish mutations were seeded in multi-well plates at 10% confluency. Compounds were dissolved in DMSO to concentrations near 1 mM, and diluted into culture media to a final concentration near 4 μM (final 0.4% DMSO). Compounds were diluted serially and applied to cells in multi-well plates 48 h after seeding. Incubation was continued in 5% CO2 at 37 degrees C. for 24 h. Aliquots were removed and assayed for Aβ40 content using a sandwich ELISA (BioSource International). Amount of Aβ40 over the range of concentration of compounds, relative to control incubations, were fit to a 4-parameter IC50 model.

Cathepsin D = Cathepsin D (Homo sapiens, UniProt P07339); assay: Inhibition of cathepsin D activity (MALDI-TOF, substrate peptide […]); format: biochemical; conditions: pH 4.1, 37 degrees C., read-out: Cath D Ki
Chain of Cathepsin D (P07339 65-412, species assumed): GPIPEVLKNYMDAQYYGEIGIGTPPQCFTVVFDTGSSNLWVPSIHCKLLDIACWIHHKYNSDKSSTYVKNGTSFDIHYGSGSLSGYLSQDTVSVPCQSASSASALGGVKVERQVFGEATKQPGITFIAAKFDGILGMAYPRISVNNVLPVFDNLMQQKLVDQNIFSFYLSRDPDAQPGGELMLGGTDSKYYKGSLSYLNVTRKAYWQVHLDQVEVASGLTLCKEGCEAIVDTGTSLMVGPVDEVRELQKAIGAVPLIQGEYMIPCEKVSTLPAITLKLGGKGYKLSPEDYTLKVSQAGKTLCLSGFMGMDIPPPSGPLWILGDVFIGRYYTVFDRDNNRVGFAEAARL

Chain of memapsin 2 (P56817 46-501): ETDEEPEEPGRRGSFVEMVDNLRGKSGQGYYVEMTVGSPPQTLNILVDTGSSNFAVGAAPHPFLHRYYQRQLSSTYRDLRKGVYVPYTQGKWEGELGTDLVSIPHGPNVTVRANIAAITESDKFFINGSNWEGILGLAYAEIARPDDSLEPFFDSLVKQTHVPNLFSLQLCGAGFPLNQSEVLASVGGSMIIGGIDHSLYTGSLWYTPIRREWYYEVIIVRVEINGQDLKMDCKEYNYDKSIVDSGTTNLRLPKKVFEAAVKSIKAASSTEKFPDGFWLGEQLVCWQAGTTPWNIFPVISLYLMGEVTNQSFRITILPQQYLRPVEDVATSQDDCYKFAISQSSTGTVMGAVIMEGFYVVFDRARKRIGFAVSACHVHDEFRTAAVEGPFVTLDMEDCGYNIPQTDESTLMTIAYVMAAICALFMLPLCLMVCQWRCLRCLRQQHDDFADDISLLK

Ki (memapsin 2) | IC50 (Aβ production) | Ki (Cathepsin D) | SMILES
< 100 nM | 6000 to 100000 nM | < 100 nM | CCC(Cn1nc(C)cc1C)C(=O)N[C@@H](CNC(=O)OCCF)C(=O)N[C@@H](CC(C)C)[C@@H](O)C[C@@H](C)C(=O)N[C@H](C(=O)NCC(C)C)C(C)C (stereo partly drawn) [2-fluoroethyl (2S)-2-(2-((3,5-dimethyl-1H-pyrazol-1-yl)methyl)butanamido)-3-((4S,5S,7R)-5-hydroxy-8-((S)-1-(isobutylamino)-3-methyl-1-oxobutan-2-ylamino)-2,7-dimethyl-8-oxooctan-4-ylamino)-3-oxopropylcarbamate]
< 100 nM | < 6000 nM | < 100 nM | COCCOC(=O)NC[C@H](NC(=O)[C@@H](C)Cc1nc(C)cs1)C(=O)N[C@@H](CC(C)C)[C@@H](O)C[C@@H](C)C(=O)N[C@H](C(=O)NCC(C)C)C(C)C [2-methoxyethyl (S)-3-((4S,5S,7R)-5-hydroxy-8-((S)-1-(isobutylamino)-3-methyl-1-oxobutan-2-ylamino)-2,7-dimethyl-8-oxooctan-4-ylamino)-2-((S)-2-methyl-3-(4-methylthiazol-2-yl)propanamido)-3-oxopropylcarbamate]
< 100 nM | < 6000 nM | < 100 nM | Cc1csc(C[C@H](C)C(=O)N[C@@H](CNS(C)(=O)=O)C(=O)N[C@@H](CC(C)C)[C@@H](O)C[C@@H](C)C(=O)N[C@H](C(=O)NCC(C)C)C(C)C)n1 [(2R,4S,5S)-4-hdroxy-N-((S)-1-(isobutylamino)-3-methyl-1-oxobutan-2-yl)-2,7-dimethyl-5-((S)-2-((S)-2-methyl-3-(4-methylthiazol-2-yl)propanamido)-3-(methylsulfonamido)propanamido)octanamide]
< 100 nM | 6000 to 100000 nM | 100 to 600 nM | CC(=O)NC[C@H](NC(=O)[C@@H](C)Cc1nc(C)cs1)C(=O)N[C@@H](CC(C)C)[C@@H](O)C[C@@H](C)C(=O)N[C@H](C(=O)NCC(C)C)C(C)C [(2R,4S,5S)-5-((S)-3-acetamido-2-((S)-2-methyl-3-(4-methylthiazol-2-yl)propanamido)propanamido)-4-hydroxy-N-((S)-1-(isobutylamino)-3-methyl-1-oxobutan-2-yl)-2,7-dimethyloctanamide]
100 to 600 nM | 6000 to 100000 nM | 100 to 600 nM | Cc1csc(C[C@H](C)C(=O)N[C@@H](CN)C(=O)N[C@@H](CC(C)C)[C@@H](O)C[C@@H](C)C(=O)N[C@H](C(=O)NCC(C)C)C(C)C)n1 [(2R,4S,5S)-5-((S)-3-amino-2-((S)-2-methyl-3-(4-methylthiazol-2-yl)propanamido)propanamido)-4-hydroxy-N-((S)-1-(isobutylamino)-3-methyl-1-oxobutan-2-yl)-2,7-dimethyloctanamide]
< 100 nM | < 6000 nM | < 100 nM | Cc1csc(COC(=O)NC[C@H](NC(=O)[C@@H](C)Cc2nc(C)cs2)C(=O)N[C@@H](CC(C)C)[C@@H](O)C[C@@H](C)C(=O)N[C@H](C(=O)NCC(C)C)C(C)C)n1 [(4-methylthiazol-2-yl)methyl (S)-3-((4S,5S,7R)-5-hydroxy-8-((S)-1-(isobutylamino)-3-methyl-1-oxobutan-2-ylamino)-2,7-dimethyl-8-oxooctan-4-ylamino)-2-((S)-2-methyl-3-(4-methylthiazol-2-yl)propanamido)-3-oxopropylcarbamate]
< 100 nM | < 6000 nM | < 100 nM | Cc1csc(C[C@H](C)C(=O)N[C@@H](CNC(=O)O[C@@H]2CCOC2)C(=O)N[C@@H](CC(C)C)[C@@H](O)C[C@@H](C)C(=O)N[C@H](C(=O)NCC(C)C)C(C)C)n1 [(R)-tetrahydrofuran-3-yl (S)-3-((4S,5S,7R)-5-hydroxy-8-((S)-1-(isobutylamino)-3-methyl-1-oxobutan-2-ylamino)2,7-dimethyl-8-oxooctan-4-ylamino)-2-((S)-2-methyl-3-(4-methylthiazol-2-yl)propanamido)-3-oxopropylcarbamate]
< 100 nM | 6000 to 100000 nM | < 100 nM | Cc1cc(C)n(C[C@H](C)C(=O)N[C@@H](CNC(=O)O[C@H]2CCOC2)C(=O)N[C@@H](CC(C)C)[C@@H](O)C[C@@H](C)C(=O)N[C@H](C(=O)NCC(C)C)C(C)C)n1 [(S)-tetrahydrofuran-3-yl (S)-2-((S)-3-(3,5-dimethyl-1H-pyrazol-1-yl)-2-methylpropanamido)-3-((4S,5S,7R)-5-hydroxy-8-((S)-1-(isobutylamino)-3-methyl-1-oxobutan-2-ylamino)-2,7-dimethyl-8-oxooctan-4-ylamino)-3-oxopropylcarbamate]
< 100 nM | < 6000 nM | < 100 nM | Cc1csc(C[C@H](C)C(=O)N[C@@H](CNC(=O)O[C@H]2CCOC2)C(=O)N[C@@H](CC(C)C)[C@@H](O)C[C@@H](C)C(=O)N[C@H](C(=O)NCC(C)C)C(C)C)n1 [(S)-tetrahydrofuran-3-yl(S)-3-((4S,5S,7R)-5-hydroxy-8-((S)-1-(isobutylamino)-3-methyl-1-oxobutan-2-ylamino)2,7-dimethyl-8-oxooctan-4-ylamino)-2-((S)-2-methyl-3-(4-methylthiazol-2-yl)propanamido)-3-oxopropylcarbamate]
< 100 nM | < 6000 nM | < 100 nM | CC[C@@H](Cc1nc(C)cs1)C(=O)N[C@@H](CNC(=O)OC(C)C)C(=O)N[C@@H](CC(C)C)[C@@H](O)C[C@@H](C)C(=O)N[C@H](C(=O)NCC(C)C)C(C)C [isoproyl (S)-3-((4S,5S,7R)-5-hydroxy-8-((S)-1-(isobutylamino)-3-methyl-1-oxobutan-2-ylamino)-2,7-dimethyl-8-oxooctan-4-ylamino)-2-((S)-2-((4-methylthiazol-2-yl)methyl)butanamido)-3-oxopropylcarbamate]
< 100 nM | < 6000 nM | < 100 nM | COC(=O)NC[C@H](NC(=O)[C@@H](C)Cc1nc(C)cs1)C(=O)N[C@@H](CC(C)C)[C@@H](O)C[C@@H](C)C(=O)N[C@H](C(=O)NCC(C)C)C(C)C [methyl (S)-3-((4S,5S,7R)-5-hydroxy-8-((S)-1-(isobutylamino)-3-methyl-1-oxobutan-2-ylamino)-2,7-dimethyl-8-oxooctan-4-ylamino)-2-((S)-2-methyl-3-(4-methylthiazol-2-yl)propanamido)-3-oxopropylcarbamate]
100 to 600 nM | > 100000 nM | 100 to 600 nM | Cc1cc(C)n(CC(N)C(=O)N[C@@H](CNC(=O)OC(C)(C)C)C(=O)N[C@@H](CC(C)C)[C@@H](O)C[C@@H](C)C(=O)N[C@H](C(=O)NCC(C)C)C(C)C)n1 (stereo partly drawn) [tert-butyl (2S)-2-(2-amino-3-(3,5-dimethyl-1H-pyrazol-1-yl)propanamido)-3-((4S,5S,7R)-5-hydroxy-8-((S)-1-(isobutylamino)-3-methyl-1-oxobutan-2-ylamino)-2,7-dimethyl-8-oxooctan-4-ylamino)-3-oxopropylcarbamate]
100 to 600 nM | 6000 to 100000 nM | < 100 nM | Cc1cc(C)n(CC(N=[N+]=[N-])C(=O)N[C@@H](CNC(=O)OC(C)(C)C)C(=O)N[C@@H](CC(C)C)[C@@H](O)C[C@@H](C)C(=O)N[C@H](C(=O)NCC(C)C)C(C)C)n1 (stereo partly drawn) [tert-butyl (2S)-2-(2-azido-3-(3,5-dimethyl-1H-pyrazol-1-yl)propanamido)-3-((4S,5S,7R)-5-hydroxy-8-((S)-1-(isobutylamino)-3-methyl-1-oxobutan-2-ylamino)-2,7-dimethyl-8-oxooctan-4-ylamino)-3-oxopropylcarbamate]
< 100 nM | 6000 to 100000 nM | – | CC[C@@H](Cn1nc(C)cc1C)C(=O)N[C@@H](CNC(=O)OC(C)(C)C)C(=O)N[C@@H](CC(C)C)[C@@H](O)C[C@@H](C)C(=O)N[C@H](C(=O)NCc1ccccn1)C(C)C [tert-butyl (S)-2-((S)-2-((3,5-dimethyl-1H-pyrazol-1-yl)methyl)butanamido)-3-((4S,5S,7R)-5-hydroxy-2,7-dimethyl-8-((S)-3-methyl-1-oxo-1-(pyridin-2-ylmethylamino)butan-2-ylamino)-8-oxooctan-4-ylamino)-3-oxopropylcarbamate]
< 100 nM | < 6000 nM | – | CC[C@@H](Cn1nc(C)cc1C)C(=O)N[C@@H](CNC(=O)OC(C)(C)C)C(=O)N[C@@H](CC(C)C)[C@@H](O)C[C@@H](C)C(=O)N[C@H](C(=O)NCc1ccncc1)C(C)C [tert-butyl (S)-2-((S)-2-((3,5-dimethyl-1H-pyrazol-1-yl)methyl)butanamido)-3-((4S,5S,7R)-5-hydroxy-2,7-dimethyl-8-((S)-3-methyl-1-oxo-1-(pyridin-4-ylmethylamino)butan-2-ylamino)-8-oxooctan-4-ylamino)-3-oxopropylcarbamate]
< 100 nM | 6000 to 100000 nM | – | Cc1csc(C[C@H](C)C(=O)N[C@@H](CNC(=O)OC(C)(C)C)C(=O)N[C@@H](Cc2cc(F)cc(F)c2)[C@@H](O)C[C@@H](C)C(=O)N[C@H](C(=O)NCC(C)C)C(C)C)n1 [tert-butyl (S)-3-((2S,3S,5R)-1-(3,5-difluorophenyl)-3-hydroxy-6-((S)-1-(isobutylamino)-3-methyl-1-oxobutan-2-ylamino)-5-methyl-6-oxohexan-2-ylamino)-2-((S)-2-methyl-3-(4-methylthiazol-2-yl)propanamido)-3-oxopropylcarbamate]
